This is an account of results in patent US9161910B2, “Method and pharmaceutical compositions for trans-buccal mucosa treatment of postprandial hyperglycaemia in type II diabetes” (priority 2009, dated 2015).

The nature of data set [1]: Complete dissolution in hydroalcoholic solution according to the invention. As to conditions: approximately 50° hydroalcoholic solution. Format: physicochemical. An excerpt:
The term “dissolved in a stable and a complete manner” means a state of dissolution restoring the active principle to the molecular state, slightly ionized in its dissolving medium, the state of dissolution preventing any possibility of inopportune recrystallization.

For data set [2] the following is noted: cited from earlier work; for distribution volume: in vivo.
The subject of another data set is plasma carrier proteins. The note with it: cited from earlier work.
The conditions of data set [3]: cited from earlier work; for solubility in alcohol: alcohol / ethanol.
For data set [4] the following is noted: oral; cited from earlier work.
In a further data set the test system is obese, diabetic patients. As to conditions: continuous perfusion, 6 weeks; cited from earlier work.

Where two headings read alike, the source gives them in different places.

`Cc1ccc(S(=O)(=O)NC(=O)NN2CC3CCCC3C2)cc1` (stereo not drawn) [Gliclazide, gliclazide]: the “complete dissolution, amount” value in data set [1] came out at 3.5 mg for 0.75 mL. Moreover, the distribution volume result in data set [2] was “approximately 30 L”. The distribution volume in data set [2] (listed as gliclazide) is 30 L. In addition, the “hepatic metabolism (in words)” value in data set [2] (oral) is “extensively metabolized by the first hepatic passage”. Besides, the “binding to plasma carrier proteins” value with plasma carrier proteins was 95%. Besides, in data set [3], the solubility in alcohol result was “slightly soluble in alcohol” and the solubility in water entry was “insoluble in water”.

As to `CN(C)C(=N)N=C(N)N` [Metformin, metformin], the “binding to plasma proteins (in words)” value in the data set on plasma carrier proteins was “not bound to plasma proteins”.

For `CCOc1cc(CC(=O)N[C@@H](CC(C)C)c2ccccc2N2CCCCC2)ccc1C(=O)O` [Repaglinide, repaglinide], in data set [4], the “inter-individual variability in plasma concentration” value was 60%, the “intra-individual variability in plasma concentration” value was 35% and the “onset of insulinotropic response after taking” value was “approximately 30 min”.

As to `N[C@@H](CC(=O)N1CCn2c(nnc2C(F)(F)F)C1)Cc1cc(F)c(F)cc1F` [Sitagliptin, sitagliptin], in data set [2] (oral), the bioavailability was about 87%. In addition, in data set [2] (single dose of 100 mg intravenous), the “mean distribution volume in the organism” value is “approximately 198 L”. In the data set on plasma carrier proteins, the “binding to plasma proteins (in words)” value is listed as “bound to plasma proteins”. In data set [3], the “solubility in organic solvents” value was “soluble in water and certain organic solvents”; the solubility in water entry is “soluble in water”.

As for `N#C[C@@H]1CCCN1C(=O)CNC12CC3CC(CC(O)(C3)C1)C2` [Vildagliptin, vildagliptin], the bioavailability result in data set [2] (oral) is listed as “approximately 85%”. In addition, in data set [3], the “solubility in organic solvents” value was “soluble in water and organic solvents”; the solubility in water result is “soluble in water”.

As to `COc1ccc(Cl)cc1C(=O)NCCc1ccc(S(=O)(=O)NC(=O)NC2CCCCC2)cc1` [glibenclamide], the “complete dissolution, amount” value in data set [1] is 1 mg per 1 mL. In data set [3], the solubility in alcohol entry was “slightly soluble in ethanol” and the solubility in water result is listed as “practically insoluble in water”.

Turning to glucagon-like peptide-1 [GLP-1], in the data set on obese, diabetic patients, the “reduction in postprandial glycemia” value is recorded as 5.5 mM and the “reduction of hemoglobin HbAlC” value is listed as 1.3%.
